# From patent US20050208496A1, “Methods of testing for bronchial asthma or chronic obstructive pulmonary disease” (Genox Research, Inc., priority 2002, published 2005)
# Read-outs that look alike come from different tables or passages of the source.
# System: respiratory epithelial cells
# Settings: IL-13 vs no stimulation
substance,measurement,setting,value
"IL-13: human IL-13 (Peprotech, Inc.) added to the medium at 50 ng/mL to stimulate respiratory epithelial cells",BENE (33331_at) expression change,lot 1 Day 3 IMM,−2.8
same,CRA (1230_g_at) expression change,lot 1 Day 3 IMM,−2.3
same,CTSL2 (40717_at) expression change,lot 1 Day 3 IMM,−2.2
same,DUSP1 (1005_at) expression change,lot 1 Day 3 IMM,−2.4
same,IGFBP3 (37319_at) expression change,lot 1 Day 3 IMM,−2
same,IGFBP6 (1736_at) expression change,lot 1 Day 3 IMM,−2.8
same,MMP9 (31859_at) expression change,lot 1 Day 3 IMM,−7.3
same,MMP10 (1006_at) expression change,lot 1 Day 3 IMM,−3.4
same,MSMB (32149_at) expression change,lot 1 Day 3 IMM,−3.7
same,NDRG1 (36933_at) expression change,lot 1 Day 3 IMM,−2.3
same,NOTCH3 (38750_at) expression change,lot 1 Day 3 IMM,−3.5
same,PFTK1 (36502_at) expression change,lot 1 Day 3 IMM,−2.6
same,PSCA (33792_at) expression change,lot 1 Day 3 IMM,−3.9
same,SERPINA3 (33825_at) expression change,lot 1 Day 3 IMM,−3.8
same,SERPINE1 (672_at) expression change,lot 1 Day 3 IMM,−7.7
same,SERPINE1 (38125_at) expression change,lot 1 Day 3 IMM,−4.2
same,TSPAN-5 (40990_at) expression change,lot 1 Day 3 IMM,−2.8
same,AGR2 (38827_at) expression change,lot 1 Day 7 AI,−2.7
same,AKR1B10 (37482_at) expression change,lot 1 Day 7 AI,−7.5
same,AKR1C3 (37399_at) expression change,lot 1 Day 7 AI,−4
same,ANXA10 (32349_at) expression change,lot 1 Day 7 AI,−2.5
same,APM2 (32527_at) expression change,lot 1 Day 7 AI,−3.8
same,AREG (34898_at) expression change,lot 1 Day 7 AI,−4.8
same,BCAS1 (37821_at) expression change,lot 1 Day 7 AI,−3.7
same,BENE (33331_at) expression change,lot 1 Day 7 AI,−7.3
same,C4.4A (41641_at) expression change,lot 1 Day 7 AI,−2.5
same,CRA (1230_g_at) expression change,lot 1 Day 7 AI,−2
same,DEFB2 (32464_at) expression change,lot 1 Day 7 AI,−4.3
same,ECM1 (37600_at) expression change,lot 1 Day 7 AI,−4.7
same,EPHA1 (1108_s_at) expression change,lot 1 Day 7 AI,−3.2
same,ETFB (36881_at) expression change,lot 1 Day 7 AI,−2
same,FABP5 (39799_at) expression change,lot 1 Day 7 AI,−4.2
same,GABRE (34280_at) expression change,lot 1 Day 7 AI,−2
same,GPNMB (38379_at) expression change,lot 1 Day 7 AI,3.6
same,HLA-DPB1 (38095_i_at) expression change,lot 1 Day 7 AI,−4.4
same,HLA-DPB1 (38096_f_at) expression change,lot 1 Day 7 AI,−2.6
same,IGFBP3 (1586_at) expression change,lot 1 Day 7 AI,−2.4
same,IGFBP3 (37319_at) expression change,lot 1 Day 7 AI,−2.7
same,IGFBP6 (1736_at) expression change,lot 1 Day 7 AI,−7.7
same,IMPA2 (36496_at) expression change,lot 1 Day 7 AI,−2
same,MMP9 (31859_at) expression change,lot 1 Day 7 AI,−10.9
same,MN1 (37283_at) expression change,lot 1 Day 7 AI,−3.2
same,MSMB (32149_at) expression change,lot 1 Day 7 AI,−11.7
same,NCALD (38803_at) expression change,lot 1 Day 7 AI,−2.8
same,NDRG1 (36933_at) expression change,lot 1 Day 7 AI,−3.6
same,NOTCH3 (38750_at) expression change,lot 1 Day 7 AI,−4.6
same,PSCA (33792_at) expression change,lot 1 Day 7 AI,−5.8
same,PTK2B (33804_at) expression change,lot 1 Day 7 AI,−6.4
same,PTPRZ1 (1364_at) expression change,lot 1 Day 7 AI,−3.7
same,RARRES1 (33505_at) expression change,lot 1 Day 7 AI,−3.3
same,RDC1 (34288_at) expression change,lot 1 Day 7 AI,−5.3
same,RTP801 (39827_at) expression change,lot 1 Day 7 AI,−2
same,S100A8 (41096_at) expression change,lot 1 Day 7 AI,−6.2
same,SERPINA3 (33825_at) expression change,lot 1 Day 7 AI,−14.1
same,SERPINB1 (33305_at) expression change,lot 1 Day 7 AI,−2.3
same,SERPINB5 (862_at) expression change,lot 1 Day 7 AI,−2.2
same,SERPINE1 (672_at) expression change,lot 1 Day 7 AI,−7.8
same,SERPINE1 (38125_at) expression change,lot 1 Day 7 AI,−18.3
same,STK39 (39120_at) expression change,lot 1 Day 7 AI,−2.9
same,TSPAN-5 (40990_at) expression change,lot 1 Day 7 AI,−3.6
same,VRP (38223_at) expression change,lot 1 Day 7 AI,−2.5
same,c-fos (1916_s_at) expression change,lot 1 Day 7 AI,−2.6
same,AKR1B10 (37482_at) expression change,lot 1 Day 7 IMM,−6.7
same,AKR1C3 (37399_at) expression change,lot 1 Day 7 IMM,−2.3
same,APM2 (32527_at) expression change,lot 1 Day 7 IMM,−6.2
same,AREG (34898_at) expression change,lot 1 Day 7 IMM,−5.2
same,BENE (33331_at) expression change,lot 1 Day 7 IMM,−4.7
same,ECM1 (37600_at) expression change,lot 1 Day 7 IMM,−18.4
same,FABP5 (39799_at) expression change,lot 1 Day 7 IMM,−3.7
same,GPNMB (38379_at) expression change,lot 1 Day 7 IMM,4.9
same,IGFBP3 (1586_at) expression change,lot 1 Day 7 IMM,−3.1
same,IGFBP3 (37319_at) expression change,lot 1 Day 7 IMM,−3.1
same,IGFBP6 (1736_at) expression change,lot 1 Day 7 IMM,−5.4
same,MMP9 (31859_at) expression change,lot 1 Day 7 IMM,−16
same,NDRG1 (36933_at) expression change,lot 1 Day 7 IMM,−2.4
same,NOTCH3 (38750_at) expression change,lot 1 Day 7 IMM,−2.7
same,PFTK1 (36502_at) expression change,lot 1 Day 7 IMM,−3.2
same,PTK2B (33804_at) expression change,lot 1 Day 7 IMM,−4.1
same,RARRES1 (1042_at) expression change,lot 1 Day 7 IMM,−3.5
same,RARRES1 (33505_at) expression change,lot 1 Day 7 IMM,−2.7
same,RDC1 (34288_at) expression change,lot 1 Day 7 IMM,−2.2
same,SEC14L2 (32817_at) expression change,lot 1 Day 7 IMM,−2.9
same,SERPINA3 (33825_at) expression change,lot 1 Day 7 IMM,−5.9
same,SERPINB1 (33305_at) expression change,lot 1 Day 7 IMM,−2.1
same,SERPINB5 (862_at) expression change,lot 1 Day 7 IMM,−2.5
same,SERPINE1 (672_at) expression change,lot 1 Day 7 IMM,−31.3
same,SERPINE1 (38125_at) expression change,lot 1 Day 7 IMM,−20.1
same,STK39 (39120_at) expression change,lot 1 Day 7 IMM,−2
same,TSPAN-5 (40990_at) expression change,lot 1 Day 7 IMM,−2.8
same,c-fos (1915_s_at) expression change,lot 1 Day 7 IMM,−4.3
same,c-fos (1916_s_at) expression change,lot 1 Day 7 IMM,−4.7
same,AKR1B10 (37482_at) expression change,lot 2 Day 3 AI,−7.1
same,AKR1C3 (37399_at) expression change,lot 2 Day 3 AI,−2.6
same,ANXA10 (32349_at) expression change,lot 2 Day 3 AI,−7.5
same,APM2 (32527_at) expression change,lot 2 Day 3 AI,−2.7
same,AREG (34898_at) expression change,lot 2 Day 3 AI,−14.6
same,BCAS1 (37821_at) expression change,lot 2 Day 3 AI,−4.6
same,BDKRB2 (39310_at) expression change,lot 2 Day 3 AI,−2.4
same,BENE (33331_at) expression change,lot 2 Day 3 AI,−4.8
same,CRA (1230_g_at) expression change,lot 2 Day 3 AI,−3.4
same,CTSL2 (40717_at) expression change,lot 2 Day 3 AI,−3.2
same,DUSP1 (1005_at) expression change,lot 2 Day 3 AI,−4.3
same,EPHA1 (1108_s_at) expression change,lot 2 Day 3 AI,−2.8
same,FABP5 (39799_at) expression change,lot 2 Day 3 AI,−3
same,GPNMB (38379_at) expression change,lot 2 Day 3 AI,−2.2
same,IGFBP3 (1586_at) expression change,lot 2 Day 3 AI,−2.9
same,IGFBP3 (37319_at) expression change,lot 2 Day 3 AI,−3
